Measured values published in paper PMC5719405, “Sex-related pharmacokinetic differences and mechanisms of metapristone (RU486 metabolite)” (Scientific Reports, 2017).

How the values were obtained:
[1] = target: human CYP3A4 (Homo sapiens, UniProt P08684); assay: Metapristone metabolism by cDNA-expressed recombinant human CYP3A4; conditions: 9 µM
[2] = target: T1, human CYP1A2 (Homo sapiens, UniProt P05177); assay: Metapristone metabolism by cDNA-expressed recombinant human CYP1A2; type: in vitro ADME; conditions: 9 µM
T1 construct: made in house; host or cells: insect cells
T1 sequence (P05177 1-516): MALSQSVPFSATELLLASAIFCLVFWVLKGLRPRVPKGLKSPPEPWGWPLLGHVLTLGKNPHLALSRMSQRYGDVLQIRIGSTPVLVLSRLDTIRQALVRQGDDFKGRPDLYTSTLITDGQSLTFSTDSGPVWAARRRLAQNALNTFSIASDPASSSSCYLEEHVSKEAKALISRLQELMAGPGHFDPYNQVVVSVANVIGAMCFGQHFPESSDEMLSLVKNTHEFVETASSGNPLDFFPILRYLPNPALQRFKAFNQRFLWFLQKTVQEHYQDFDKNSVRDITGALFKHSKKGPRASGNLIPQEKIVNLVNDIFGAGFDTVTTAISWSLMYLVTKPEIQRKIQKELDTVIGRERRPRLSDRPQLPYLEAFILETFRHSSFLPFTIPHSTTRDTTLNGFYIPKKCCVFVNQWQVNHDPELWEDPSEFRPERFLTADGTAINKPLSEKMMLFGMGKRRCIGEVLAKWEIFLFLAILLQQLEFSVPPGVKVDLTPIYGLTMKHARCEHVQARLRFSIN
Description: To identify CYP450 isomers which were responsible for the sex different metabolism of metapristone, both CYP450 inhibitors and cDNA-expressed recombinant human CYPs were used[11]. […] The reactions of the control groups with control rat liver microsomes (heated to 80 °C for 5 min to inactivate enzymes) to inactivate enzymes or without NADPH were also included. […] The cDNA-expressed recombinant human CYPs were prepared from insect cells transfected with cDNAs encoding for human CYP1A2 or CYP3A4. […] Each reaction was then started by the addition of metapristone (9 µM) with subsequent mixing of each sample by inversion. […] Metapristone were identified by the LC/MS/MS method. Peak areas formed were used for quantitative analyses. Control incubation mixtures included mixtures without inhibitors, and mixtures with untransfected insect cell microsomes used as microsomal control, and mixtures that contained methanol instead of inhibitor (methanol control). Quantitative analyses were performed by comparing the peak areas of the inhibition reactions to their respective methanol controls. The total organic solvent content of the in vitro reaction mixtures was less than 2%.

[3] = Repeated 10-day oral dosing, accumulation of metapristone in blood; type: in vivo; conditions: rats, 45 mg/kg/day p.o. for 10 days, 6 h post dosing
Description: In order to determine whether metapristone accumulated in blood over a long period of multiple dose administration, metapristone levels in blood were monitored at 6 h post dosing on day 1 and 10 during a consecutive 10-day oral dosing period with metapristone at 45 mg/kg/day.
For pharmacokinetic study, rats were fasted overnight with free access to water using procedures reported previously. Ninety-six SD rats (forty-eight males and forty-eight females) were randomly divided into eight single-dose groups. Rats (six animals/sex/dose) were given a single oral dose of 22.5, 45 and 90 mg/kg metapristone (in soybean oil solution) by intragastric administration or 10 mg/kg metapristone by intravenous bolus injection. Rat blood samples (0.25 mL) were collected from the ocular vein into heparinized tubes prior to and at 0 (before administration), 0.5, 1.0, 1.5, 2.0, 4.0, 6.0, 8.0, 12, 24, 36 and 48 h post-dosing in female rats or 0.5, 1.0, 1.5, 2.0, 4.0, 6.0, 8.0, 12, 24, 30 and 36 h post-dosing in male rats. In the repeated dose study twenty-four rats (six animals/sex/dose) received the same dosing regimen at 45 mg/kg metapristone for 10 days. Blood samples were collected after oral administration on day 1 and 10 at T max. The samples were stored at −80 °C until analysis. […]

[4] = tested on: cancer cells; conditions: cited from earlier work
[5] = rats, 12.5, 50 and 200 mg/kg/day; only occurred at 200 mg/kg/day; cited from earlier work
[6] = tested on: CYP1A2; assay: Western blotting of rat liver CYP1A2 after 7-day oral metapristone; type: in vivo
Description: To further confirm CYP1A2 and CYP3A4 are the primary CYP isoforms that metabolize metapristone, we administered oral metapristone (22.5 and 45 mg/kg/day for 7 days) to male and female rats, respectively, and measured the activity of liver CYP1A2 and CYP3A4 by using the western blotting assay. We selected western blot staining density from the controls as the basis (100%) to compare changes in CYP1A2 and CYP3A4 activity after metapristone treatment.
The total microsomal protein was extracted from rat livers prepared by diluting liver microsomal suspension with 1 volume of immunoprecipitation assay lysis buffer (150 mM NaCl, 1% NP-40, 0.5% sodium deoxy-cholic acid, 0.1% SDS, and 50 mM Tris-Cl, pH 7.5) for 15 min and then centrifuged at 13,000 rpm 4 °C for 10 min. Aliquots containing 20 µg of protein were separated by SDS-PAGE on a 10% gradient gel (Invitrogen, USA) and transferred to a PVDF membrane that was blocked with 5% non-fat dry milk in Tris-buffered saline with Tween 20 (200 mM Tris–HCl, 1.37 M NaCl, 0.1% Tween 20, pH 7.6) for 1 h. The membrane was then incubated with rabbit anti-rat CYP1A2 polyclonal antibody (1:2000 dilution), rabbit anti-rat CYP3A4 polyclonal antibody (1:1000 dilution) and glyceraldehyde-3-phosphate dehydrogenase (GAPDH) antibody (1:2000 dilution), overnight at 4 °C. After rinsing five times with buffer TBST at room temperature, the membrane was incubated with horseradish peroxidase (HRP)-labeled anti-rabbit immunoglobulin G (IgG) anti-body (Santa Cruz Biotechnology, USA). The immunoreactive bands were visualized using an enhanced chemiluminescence detection system (ChemiDoc™XRS + , Bio-Rad, Hercules, CA, USA) and quantified by using densitometry Image J 1.41 software.

Sequence of human CYP3A4 (P08684 whole entry): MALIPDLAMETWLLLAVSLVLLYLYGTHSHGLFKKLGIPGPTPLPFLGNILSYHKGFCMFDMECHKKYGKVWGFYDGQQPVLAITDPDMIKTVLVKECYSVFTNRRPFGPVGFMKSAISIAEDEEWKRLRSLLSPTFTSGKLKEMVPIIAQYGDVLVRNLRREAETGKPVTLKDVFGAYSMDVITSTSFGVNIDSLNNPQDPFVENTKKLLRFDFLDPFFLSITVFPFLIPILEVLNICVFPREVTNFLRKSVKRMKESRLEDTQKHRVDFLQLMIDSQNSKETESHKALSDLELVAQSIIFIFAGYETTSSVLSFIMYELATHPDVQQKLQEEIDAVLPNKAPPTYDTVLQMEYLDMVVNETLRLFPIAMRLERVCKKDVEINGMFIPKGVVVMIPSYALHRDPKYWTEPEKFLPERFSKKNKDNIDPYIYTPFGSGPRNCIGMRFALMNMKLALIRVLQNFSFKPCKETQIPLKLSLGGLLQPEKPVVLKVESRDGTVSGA

## CC#C[C@]1(O)CC[C@H]2[C@@H]3CCC4=CC(=O)CCC4=C3[C@@H](c3ccc(NC)cc3)C[C@@]21C [metapristone, N-monodemethyl mifepristone]
[1]; 120 min incubation with CYP3A4, absence of inhibitor
  metapristone remaining: 16.3%
[1]; 120 min incubation with CYP3A4, plus ketoconazole 10 µM
  metapristone unchanged: 72.9%
[2]; 120 min incubation with CYP1A2, absence of inhibitor
  metapristone remained: 47.9%
[2]; 120 min incubation with CYP1A2, plus α-naphthoflavone 10 µM
  metapristone survived: 89.9%
[3]
  accumulation of metapristone in blood, day 10 versus day 1: about 6 fold
[4]
  effect on cancer cells: cytostatic effect
[5]
  hepatotoxicity after thirty-day oral administration: reversible hepatotoxicity
[6]; female rats, 22.5 mg/kg/day p.o. for 7 days
  CYP1A2 western blot staining density relative to controls (100%): 120 ± 16%
[6]; female rats, 45 mg/kg/day p.o. for 7 days
  CYP1A2 western blot staining density relative to controls (100%): 147 ± 21%
[6]; male rats, 22.5 mg/kg/day p.o. for 7 days
  CYP1A2 western blot staining density relative to controls (100%): 156 ± 19%
[6]; male rats, 45 mg/kg/day p.o. for 7 days
  CYP1A2 western blot staining density relative to controls (100%): 163 ± 12%
